The record followed here is article PMC4165461 (Analytical Chemistry, 2014).

*1 amine or outer side, *2 acyl side, *3 side chain or, on linkers, in order; H or OH if unused. Where a SMILES comes first, the peptide text is derived from it. CO = O=C([*:1])[*:2] Bounds are passed on as bounds.

As usually defined, the Km is the substrate concentration at which the rate is half of its maximum.

For the first data set, the system named is CC(C)[C@H](NC(=O)[C@H](Cc1ccccc1)NC(=O)CNC(=O)[C@H](Cc1ccccc1)NC(=O)CN)C(=O)NCC(=O)NCC(=O)O. The data set can be described thus: purified protein, by the assay type. To be noted: other: substrate 0 to 400 μM, 50 nM cathepsin B; 37.0 °C.
In the case of cathepsin B (Homo sapiens), the Km is 270 ± 34 µM.

A further data set deals with cathepsin B (Homo sapiens, UniProt P07858). The data set can be described thus: Cathepsin B assay by droplet ESI-MS. To be noted: 25 μM each.
For the compound `CC(C)C[C@H](NC(=O)[C@H]1O[C@@H]1C(=O)O)C(=O)NCCCCN=C(N)N` (relative stereo) [E-64, L-trans-3-carboxyoxiran-2-carbonyl-L-leucylagmatine], the “result in the 24-compound pilot screen” value was “detected as inhibitors”. With `CC(=O)N[C@@H](CC(C)C)C(=O)N[C@@H](CC(C)C)C(=O)N[C@H](C=O)CCCNC(=N)N` [leupeptin, N-acetyl-L-leucyl-L-leucyl-L-argininal], the “result in the 24-compound pilot screen” value is “detected as inhibitors”. Consider `CC(C)[C@H](NC(=O)[C@H](CCCNC(=N)N)NC(=O)N[C@@H](Cc1ccccc1)C(=O)O)C(=O)N[C@H](C=O)CCCNC(=N)N` [antipain, [(S)-1-carboxy-2-phenylethyl]carbamoyl-L-arginyl-L-valyl-argininal] ({Phe-CO}-Arg-Val-Arg-aldehyde), for which the “result in the 24-compound pilot screen” value is recorded as “detected as inhibitors”. As for `CC(C)C[C@H](NC(=O)[C@@H](NC(=O)N[C@@H](Cc1ccccc1)C(=O)O)[C@@H]1CCN=C(N)N1)C(=O)N[C@H](C=O)Cc1ccccc1` [chymostatin, N-(Nα-carbonyl-[S,S]-α-(2-iminohexahydro-4-pyrimidyl)glycine-X-Phe-al)-Phe, X = Leu, Val, or Ile], the “result in the 24-compound pilot screen” value is recorded as “detected as inhibitors”.

The same data set, now with this note: read-out: reduction of reaction yield in the primary screen.
Turning to `C=C(CC)C(=O)c1ccc(OCC(=O)O)c(Cl)c1Cl` [ethacrynic acid], the inhibition at 25 µM was ≥ 40%. On the same count and under the same terms, the value for `CCN(CC)C(=S)SSC(=S)N(CC)CC` [disulfiram] was ≥ 40%; that for `CSc1nc2cc(Cl)c(Oc3cccc(Cl)c3Cl)cc2[nH]1` [Triclabendazole, triclabendazole] was ≥ 40%; that for `O=C(c1ccc(OCCN2CCCCC2)cc1)c1c(-c2ccc(O)cc2)sc2cc(O)ccc12` [raloxifene] was ≥ 40%.

For the compound `Oc1cc(Cl)ccc1Oc1ccc(Cl)cc1Cl` [triclosan], the inhibition at 25 µM was ≥ 40%. Regarding `CC(=O)Oc1cccc2c1C(=O)c1c(OC(C)=O)cc(C(=O)O)cc1C2=O` [diacerein], the inhibition at 25 µM is ≥ 40%.

`[H]/N=C(\N/C(=N/[H])NCCCCCCNC(=N)NC(=N)Nc1ccc(Cl)cc1)Nc1ccc(Cl)cc1` [Chlorhexidine, chlorhexidine]: the inhibition at 25 µM was ≥ 40%. Consider `Oc1c(Cl)cc(Cl)c(Cl)c1Cc1c(O)c(Cl)cc(Cl)c1Cl` [hexachlorophene], for which the inhibition at 25 µM is ≥ 40%. Same read-out and setting: the value for `O=C1c2c(O)cccc2Cc2cccc(O)c21` [anthralin] was ≥ 40%; that for `O=c1cc(-c2ccc(O)c(O)c2)oc2cc(O)cc(O)c12` [Luteolin, luteolin] was ≥ 40%.
